Measured values reported in patent publication US20240391965A1, “STAPLED ANTIMICROBIAL PEPTIDES (STAMPS) AND USES THEREOF” (Lytica Therapeutics, Inc., priority 2021, published 2024).
≈ marks a conversion by molar mass, not a printed value. Starred links: 1 amine or outer side, 2 acyl side, 3 side chain; linkers in the order of their positions; H or OH if unused. Positions of bridges follow the written chain, without caps; N, C: chain ends. Residues, ends and D or L forms follow the SMILES beside them. 2,2'Bipyridine(5,5'-diCH2) = c1cc(-c2ccc(C[*:2])cn2)ncc1C[*:1]; Naphthalene(2,6-diCH2) = c1cc2cc(C[*:2])ccc2cc1C[*:1]; pXylylene = c1cc(C[*:2])ccc1C[*:1]

Legend:
[1] = 48 hours cytotoxicity assay (CellTiter-Glo), liver toxicity; format: cell-based, human; conditions: 48 hours of incubation, CellTiter-Glo; read-out: Inhibitory Concentration at 50% Cytotoxicity (IC50) Human Liver Cells (HepG2)
Procedure, shortened: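 Viability from CellTiter-Glo luminescence after StAMP dilution series or vehicle acted on HepG2 cells for 48 h at 37 °C. Cells were grown in EMEM plus 10% FBS and given 4 h to attach before dosing.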

[2] = test system: Klebsiella pneumoniae (K. pneumoniae); format: cell-based; conditions: microbroth dilution, 20-24 hours at 37° C.
Procedure, shortened: (§1)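 Bacteria from overnight cultures, regrown 3-4 h, were added at 5×10^5 CFU/ml final to peptide serial dilutions in MHB or MHB II. Plates were incubated 20-24 h at 37° C. The minimum peptide concentration without visible growth was taken as MIC, per a CLSI-adapted microdilution protocol.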

[3] = test system: Staphylococcus aureus (S. aureus); format: cell-based; conditions: microbroth dilution, 20-24 hours at 37° C.
Procedure, shortened: as §1

[4] = test system: Acinetobacter baumannii (A. baumannii); format: cell-based; conditions: microbroth dilution, 20-24 hours at 37° C.
Procedure, shortened: as §1

[5] = test system: Escherichia coli (E. coli); format: cell-based; conditions: microbroth dilution, 20-24 hours at 37° C.
Procedure, shortened: as §1

[6] = test system: Pseudomonas aeruginosa (P. aeruginosa); format: cell-based; conditions: microbroth dilution, 20-24 hours at 37° C.
Procedure, shortened: as §1

[7] = 90 minute cytotoxicity assay (LDH release), renal toxicity; format: cell-based; conditions: 90 minutes of incubation, LDH release; read-out: Inhibitory Concentration at 50% Cytotoxicity (IC50) Human Renal Proximal Tubule Epithelial Cells (RPTEC)
Procedure, shortened: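 Released lactate dehydrogenase, read as absorbance at 490 nm after 10 min with assay reagent, serves as read-out. Renal proximal tubule epithelial cells received peptide serial dilutions or vehicle for 90 min at 37° C after overnight plating.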

Compound	IC50 [1] [µg/mL]	Minimum Inhibitory Concentration (MIC) K. pneumoniae [2] [µg/mL]	Minimum Inhibitory Concentration (MIC) S. aureus [3] [µg/mL]	Minimum Inhibitory Concentration (MIC) A. baumannii [4] [µg/mL]	Minimum Inhibitory Concentration (MIC) E. coli [5] [µg/mL]	Minimum Inhibitory Concentration (MIC) P. aeruginosa [6] [µg/mL]	IC50 [7] [µg/mL]
CC[C@H](C)[C@H](NC(=O)CN)C(=O)N[C@@H](Cc1ccccc1)C(=O)N[C@@H](CO)C(=O)N[C@@H](CCCCN)C(=O)N[C@@H](CC(C)C)C(=O)N[C@H]1CSCc2ccc(nc2)-c2ccc(cn2)CSC[C@@H](C(=O)N[C@@H](CC(C)C)C(=O)N[C@H](C(=O)N[C@@H](CO)C(=O)NCC(=O)N[C@@H](CC(C)C)C(=O)N[C@@H](CCCCN)C(=O)NCC(N)=O)[C@@H](C)CC)NC(=O)[C@H](CC(N)=O)NC(=O)[C@H](CCCCN)NC(=O)[C@H]([C@@H](C)CC)NC(=O)[C@H](CCCCN)NC(=O)[C@H](CCCCN)NC(=O)CNC1=O [compound 89] (H-GIFSKLCGKKIKNCLISGLKG-NH2; linker 7-14 via 2,2'Bipyridine(5,5'-diCH2))	62 (≈ 26 µM)	16	>64	4	4	32	80 (≈ 33.5 µM)
CC[C@H](C)[C@H](NC(=O)[C@H](CC(C)C)NC(=O)[C@H](CC(C)C)NC(=O)[C@H](CC(N)=O)NC(=O)[C@H](CCCCN)NC(=O)[C@@H](NC(=O)[C@H](CCCCN)NC(=O)[C@@H]1CSCc2ccc3cc(ccc3c2)CSC[C@H](NC(=O)CN)C(=O)N[C@@H](Cc2ccccc2)C(=O)N[C@@H](CO)C(=O)N[C@@H](CCCCN)C(=O)N[C@@H](CC(C)C)C(=O)N[C@@H](C)C(=O)NCC(=O)N1)[C@@H](C)CC)C(=O)N[C@@H](CO)C(=O)NCC(=O)N[C@@H](CC(C)C)C(=O)N[C@@H](CCCCN)C(=O)NCC(N)=O [compound 52] (H-GCFSKLAGCKIKNLLISGLKG-NH2; linker 2-9 via Naphthalene(2,6-diCH2); N-terminus assumed)	10 (≈ 4.34 µM)	>64	>64	32	32	>64	> 200
CC[C@H](C)[C@H](NC(=O)CN)C(=O)N[C@@H](Cc1ccccc1)C(=O)N[C@@H](CO)C(=O)N[C@@H](CCCCN)C(=O)N[C@@H](CC(C)C)C(=O)N[C@@H](C)C(=O)NCC(=O)N[C@@H](CCCCN)C(=O)N[C@@H](CCCCN)C(=O)N[C@H](C(=O)N[C@@H](CCCCN)C(=O)N[C@@H](CC(N)=O)C(=O)N[C@@H](CC(C)C)C(=O)N[C@@H](CC(C)C)C(=O)N[C@H]1CSCc2ccc(cc2)CSC[C@@H](C(=O)NCC(N)=O)NC(=O)[C@H](CC(C)C)NC(=O)CNC(=O)[C@H](CO)NC1=O)[C@@H](C)CC [compound 33] (H-GIFSKLAGKKIKNLLCSGLCG-NH2; linker 16-20 via pXylylene)	57 (≈ 25.3 µM)	8	64	4	4	16	59 (≈ 26.2 µM)
